Laboratory results reported in ChEMBL document CHEMBL3997831, “Synthesis and evaluation of prodrugs of corticotropin-releasing factor-1 (CRF1) receptor antagonist BMS-665053 leading to improved oral bioavailability” (Bioorg Med Chem Lett, 2017).
Converted amounts (≈) assume the structure as drawn.

Tests used:
[1] = Thermodynamic equilibrium aqueous solubility in pH 1 solution at 1 mg/ml after 15 to 24 hrs by UV-HPLC method; format: physicochemical; settings: aqueous pH 1 solution, read-out: Therm_solubility
[2] = Thermodynamic equilibrium aqueous solubility in pH 6.5 solution at 1 mg/ml after 15 to 24 hrs by UV-HPLC method; format: physicochemical; settings: for solubility thermodynamic: aqueous pH 6.5 solution, read-out: Therm_solubility
[3] = (§1) AUC (0 to 24 hrs) in Sprague-Dawley rat at 10 mg/kg, po by LC-MS/MS analysis; format: ADME, organism-based; design: dose 10 mg/kg, time < 24 hr, route oral; settings: Sprague-Dawley, in vivo
[4] = (§2) Cmax in Sprague-Dawley rat at 10 mg/kg, po by LC-MS/MS analysis; format: ADME, organism-based; design: dose 10 mg/kg, route oral; settings: Sprague-Dawley, in vivo
[5] = Oral bioavailability in Sprague-Dawley rat at 10 mg/kg by LC-MS/MS analysis; format: ADME, organism-based; settings: in vivo
Plasma = assay: Prodrug activation in Sprague-Dawley rat assessed as BMS-665053 level in plasma at 10 mg/kg, po by LC-MS/MS analysis; format: organism-based; settings: in vivo
[6] = Stability in pH 1 buffer by HPLC method; format: physicochemical
[7] = Prodrug activation in pH 7 buffer assessed as BMS-665053 formation after 10 mins by HPLC method
Rattus norvegicus [8] = assay: as §1; format: ADME, organism-based; design: dose 10 mg/kg, time < 24 hr, route oral; settings: in vivo, 24 h, BLD = below limit of detection
Rattus norvegicus [9] = assay: as §2; format: ADME, organism-based; design: dose 10 mg/kg, route oral; settings: in vivo, BLD = below limit of detection
[10] = Stability in pH 1 buffer after 8 hrs by HPLC method; format: physicochemical; settings: pH 1, 8 h
[11] = Stability in pH 7 buffer after 8 hrs by HPLC method; format: physicochemical; settings: pH 7, 8 h
[12] = biological target: T1, Alkaline phosphatase, tissue-nonspecific isozyme (Homo sapiens, UniProt P05186); assay: (§3) Drug metabolism treated with 3-(Phosphonooxy)propyl (S)-(6-chloro-4-(1-cyclopropylethyl)-3-oxo-3,4-dihydropyrazin-2-yl)(2,6-dichloro-4-(difluoromethoxy)phenyl)carbamate, disodium salt assessed as alkaline phosphatase (unknown origin)-mediated compound conversion after 120 mins by LC-MS analysis; format: ADME; settings: 2 h
T1 sequence (P05186 whole entry): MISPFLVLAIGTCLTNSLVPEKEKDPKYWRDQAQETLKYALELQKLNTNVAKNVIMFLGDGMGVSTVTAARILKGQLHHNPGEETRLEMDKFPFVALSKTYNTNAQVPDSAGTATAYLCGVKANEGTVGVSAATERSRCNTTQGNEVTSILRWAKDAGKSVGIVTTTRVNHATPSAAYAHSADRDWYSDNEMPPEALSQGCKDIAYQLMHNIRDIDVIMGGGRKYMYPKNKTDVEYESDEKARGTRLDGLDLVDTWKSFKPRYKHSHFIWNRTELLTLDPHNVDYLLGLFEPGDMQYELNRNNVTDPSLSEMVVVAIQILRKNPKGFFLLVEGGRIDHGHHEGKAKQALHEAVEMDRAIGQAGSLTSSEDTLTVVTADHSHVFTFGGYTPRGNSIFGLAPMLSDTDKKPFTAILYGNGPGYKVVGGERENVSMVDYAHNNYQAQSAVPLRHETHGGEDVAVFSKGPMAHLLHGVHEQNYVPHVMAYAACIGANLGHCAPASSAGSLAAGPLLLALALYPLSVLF

[13] = biological target: T1, Alkaline phosphatase, tissue-nonspecific isozyme; assay: as §3, with “2,2-Dimethyl-3-(phosphonooxy)propyl” for “3-(Phosphonooxy)propyl”; format: ADME; settings: 2 h

Row | Compound | solubility thermodynamic [1] | solubility thermodynamic [2] | AUC(0-t) at 24 h [3] | Cmax [4] | bioavailability [5] | Drug metabolism (Plasma) | further results
1 | C[C@@H](C1CC1)n1cc(Cl)nc(Nc2c(Cl)cc(OC(F)F)cc2Cl)c1=O | 7 µg/mL (≈ 16.5 µM) | < 1 µg/mL | 1.26 µM·h | – | – | – | –
2 | C[C@@H](C1CC1)n1cc(Cl)nc(N(C(=O)OCOP(=O)(O)O)c2c(Cl)cc(OC(F)F)cc2Cl)c1=O | 338 µg/mL (≈ 584 µM) | – | 3.99 µM·h | 460 nM | 17% | 23 %ID | Therm_solubility ([2]; buffer): Nd(Unstable); Stability [6]: Stable; Drug metabolism [7]: Metabolite detected
3 | C[C@@H](C1CC1)n1cc(Cl)nc(N(C(=O)OCCCOP(=O)([O-])[O-])c2c(Cl)cc(OC(F)F)cc2Cl)c1=O.[Na+].[Na+] | 4 µg/mL | 1500 µg/mL | 4.23 µM·h | 295 nM | 18% | – | Stability [10]: Stable; Stability [11]: Stable
4 | C[C@@H](C1CC1)n1cc(Cl)nc(N(C(=O)OCCCO)c2c(Cl)cc(OC(F)F)cc2Cl)c1=O | – | – | – | – | – | – | Drug metabolism [12]: Metabolite_Detected; Drug metabolism [13]: Metabolite_Detected
5 | C[C@@H](C1CC1)n1cc(Cl)nc(N(C(=O)OCC(C)(C)COP(=O)([O-])[O-])c2c(Cl)cc(OC(F)F)cc2Cl)c1=O.[Na+].[Na+] | 50 µg/mL | > 1500 µg/mL | – | – | – | Metabolite_Notdetected | AUC (Rattus norvegicus [8]): Bld; Cmax (Rattus norvegicus [9]): Bld
6 | C[C@@H](C1CC1)n1cc(Cl)nc(N(COP(=O)([O-])[O-])c2c(Cl)cc(OC(F)F)cc2Cl)c1=O.[Na+].[Na+] | – | – | 5.99 µM·h | 2150 nM | 25% | – | –

Now from value to compound, other results behind:

Row | solubility thermodynamic [1] | solubility thermodynamic [2] | AUC(0-t) at 24 h [3] | Cmax [4] | bioavailability [5] | Drug metabolism (Plasma) | Compound | further results
7 | 1820 µg/mL | 10 µg/mL | 7.37 µM·h | 740 nM | 32% | – | CC(C)[C@H](N)C(=O)OCOC(=O)N(c1c(Cl)cc(OC(F)F)cc1Cl)c1nc(Cl)cn([C@@H](C)C2CC2)c1=O.Cl | –
8 | 1720 µg/mL (≈ 2950 µM) | 530 µg/mL (≈ 908 µM) | – | – | – | Metabolite_Notdetected | C[C@@H](C1CC1)n1cc(Cl)nc(N(C(=O)OCOC(=O)CN(C)C)c2c(Cl)cc(OC(F)F)cc2Cl)c1=O | AUC (Rattus norvegicus [8]): Bld; Cmax (Rattus norvegicus [9]): Bld
9 | 1350 µg/mL | 30 µg/mL | 6.32 µM·h | 490 nM | 27% | – | C[C@@H](C1CC1)n1cc(Cl)nc(N(C(=O)OCOC(=O)CCN)c2c(Cl)cc(OC(F)F)cc2Cl)c1=O.Cl | –
10 | 370 µg/mL | 5 µg/mL | 8.25 µM·h | 730 nM | 36% | – | C[C@H](N)C(=O)OCOC(=O)N(c1c(Cl)cc(OC(F)F)cc1Cl)c1nc(Cl)cn([C@@H](C)C2CC2)c1=O.Cl | –
